Patent US20050136472A1, “Methods for identification of ligands or modulators of 2871 receptor, a G-protein coupled receptor” (Millennium Pharmaceuticals, Inc., priority 2001, published 2005)

Assays:
2871 receptor [1] = target: T1, 2871 receptor (Homo sapiens, UniProt Q9BY21); test: FLIPR calcium mobilization screening of 2871 receptor-transfected cells; format: cell-based; details: HEK293G16 cells stably transfected with 2871 receptor protein; for calcium mobilization response: concentration response; for EC50: calcium mobilization
T1 construct: encodes a full length 2871 receptor protein; myc (on only one of the two constructs made); expressed in transfected cells
T1 sequence (Q9BY21 whole entry): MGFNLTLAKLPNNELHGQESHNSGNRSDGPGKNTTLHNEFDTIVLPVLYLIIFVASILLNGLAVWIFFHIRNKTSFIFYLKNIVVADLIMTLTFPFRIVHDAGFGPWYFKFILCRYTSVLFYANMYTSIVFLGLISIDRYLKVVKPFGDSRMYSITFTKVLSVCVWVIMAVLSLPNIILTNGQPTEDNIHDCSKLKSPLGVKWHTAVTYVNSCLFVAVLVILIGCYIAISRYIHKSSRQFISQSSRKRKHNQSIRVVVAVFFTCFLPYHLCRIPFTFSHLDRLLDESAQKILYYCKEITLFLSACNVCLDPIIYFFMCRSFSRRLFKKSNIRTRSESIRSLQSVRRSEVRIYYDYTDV
Procedure: The 2871 receptor proteins were expressed in either human embryonic kidney 293 (HEK293) cells or CHO cells, both of which were stably transfected with cDNA encoding the promiscuous G-protein Gal6. A pEF6 vector (invitrogene) including a cDNA of 2871 comprising only the open reading frame (ORF) or 5′-myc tagged ORF was constructed. Cells were transfected with individual construct by lipofectamine (GIBCO) and selected in the presence of 20 ug/ml Blasticidine. After 3 weeks of selection, drug resistant cells were subcloned to obtain individual clones by limited dilution. To isolate cell lines stably expressing the 2871 receptor protein, about 48 clones were typically selected and analyzed. The expression level for myc-tagged 2871 on individual clones was evaluated by using anti-myc Ab staining and FACScan analysis. The expression level for un-tagged 2871 was evaluated by mRNA analysis using standard Taqman techniques and comparing with mRNA expression of myc-tagged 2871 clones. HEK293G16 or CHOG16 cells transfected with the vector alone serve as negative controls. The clones with the highest expression of 2871 as well as good morphology and growth were used for the screening experiments.
The functional screening procedure involves the use of transfected mammalian cells (CHO, HEK293, RBL, L1.2 etc.) containing a cDNA encoding the 2871 peptides to express the receptor on the cell surface. The cells were loaded with a calcium dependent dye such as fura 2 that produces a fluorescent signal when bound to calcium.
Cells were bound to a receptor agonist, such as Ap6A. Any change in fluorescent signal was measured over a defined period of time using a Fluorescence Imaging Plate Reader (FLIPR) (See Sullivan E, et al. Measurement of [Ca^2+] using the Fluorometric Imaging Plate Reader (FLIPR). Methods Mol Biol 1999;114:125-133.)
Cells were exposed to putative ligands and/or modulators and evaluated for agonist induced calcium mobilization. Cell lines transfected with vector alone served as negative controls in the same screening procedures for agents initially identified as putative ligands and/or modulators.
(§1) 2871 receptor-transfectants (IIEK293 (60,000 cells/well) or CHO cells (30,000 cells/well)) were seeded into poly-D-lysine-coated 96-well black-wall, clear-bottom microtiter plates 24 hours prior to assay. Cells were loaded for 1 hour with 2 μM Fluo-3-AM fluorescent indicator dye (Molecular Probes) in assay buffer (Hank's balanced salt solution, 10 mM HEPES, 0.1% BSA, 2.5 mM probenecid), washed three times with assay buffer, and then applied to FLIPR for analysis.
Bio-active lipids were screened at final concentration of 200 nM and 1 μM. Nucleotides were screened at final concentration of 1 μM and 2 μM. The ratio of net change (maximum subtracting minimum) in fluorescence over baseline was used to determine agonist response. Positive responses were confirmed by checking original raw responsive curve.
Concentration response curve data were fitted by Graphpad Prism 2.1 (Graphpad software, Inc., San Diego).

2871 receptor [2] = target: T1, 2871 receptor; test: Desensitization of calcium mobilization response by sequential adenosine nucleotide treatment (FLIPR); format: cell-based; details: for desensitization of calcium mobilization response to subsequent adenosine nucleotide treatment: additional treatment five to six minutes after initial dose
Procedure: as §1
Furthermore, calcium mobilization response was selectively desensitized treatment with adenosine nucleotide was followed by subsequent treatment with additional adenosine nucleotide. Initial treatment with adenosine nucleotide was followed by additional treatment five to six minutes after initial dose. Treatment and data analysis were as described supra.

| Compound | calcium mobilization response (2871 receptor [1]) | EC50 (2871 receptor [1]) [nM] | desensitization of calcium mobilization response to subsequent adenosine nucleotide treatment (2871 receptor [2]) | agonist activity after initial AMP treatment (2871 receptor [2]; second treatment five to six minutes after initial AMP dose) |
| --- | --- | --- | --- | --- |
| Nc1ncnc2c1ncn2[C@@H]1O[C@H](COP(=O)(O)OP(=O)(O)O[C@H]2O[C@H](CO)[C@@H](O)[C@H](O)[C@@H]2O)[C@@H](O)[C@H]1O [ADP-mannose] | dose-dependent | – | – | – |
| Nc1ncnc2c1ncn2C1OC(COP(=O)(O)OP(=O)(O)OCC2OC(O)C(O)C2O)C(O)C1O (stereo not shown) [ADP-ribose, adenosine di-phosphate-ribose] | dose-dependent | 400 to 800 | – | – |
| Nc1ncnc2c1ncn2[C@@H]1O[C@H](COP(=O)(O)OP(=O)(O)OP(=O)(O)OC[C@H]2O[C@@H](n3cnc4c(N)ncnc43)[C@H](O)[C@@H]2O)[C@@H](O)[C@H]1O [AP3A] | dose-dependent | – | – | – |
| Nc1ncnc2c1ncn2[C@@H]1O[C@H](COP(=O)(O)OP(=O)(O)OC[C@H]2O[C@@H](n3cnc4c(N)ncnc43)[C@H](O)[C@@H]2O)[C@@H](O)[C@H]1O [AP2A] | dose-dependent | – | – | – |
| di-adenosine hexaphosphate [AP6A] | dose-dependent | 200 to 400 | effectively desensitized 2871 receptor to subsequent treatment with either AP6A or AMP | retained agonist activity |
| di-adenosine pentaphosphate [AP5A] | dose-dependent | 1200 to 1800 | – | – |
| di-adenosine tetraphosphate [AP4A] | dose-dependent | 1800 to 2000 | – | – |
| Nc1ncnc2c1ncn2[C@@H]1O[C@H](COP(=O)(O)O)[C@@H](O)[C@H]1O [AMP, adenosine monophosphate] | dose-dependent | 500 to 800 | conferred desensitization to subsequent AMP treatment | – |
